Experimental data as given in ChEMBL document CHEMBL5149992, “Discovery, Optimization, and Evaluation of Quinazolinone Derivatives with Novel Linkers as Orally Efficacious Phosphoinositide-3-Kinase Delta Inhibitors for Treatment of Inflammatory Diseases” (J Med Chem, 2021).

What was measured:
[1] = biological target: T1, Phosphatidylinositol 4,5-bisphosphate 3-kinase catalytic subunit delta isoform (Homo sapiens, UniProt O00329); test: Inhibition of PI3Kdelta (unknown origin)
T1 sequence (O00329 whole entry): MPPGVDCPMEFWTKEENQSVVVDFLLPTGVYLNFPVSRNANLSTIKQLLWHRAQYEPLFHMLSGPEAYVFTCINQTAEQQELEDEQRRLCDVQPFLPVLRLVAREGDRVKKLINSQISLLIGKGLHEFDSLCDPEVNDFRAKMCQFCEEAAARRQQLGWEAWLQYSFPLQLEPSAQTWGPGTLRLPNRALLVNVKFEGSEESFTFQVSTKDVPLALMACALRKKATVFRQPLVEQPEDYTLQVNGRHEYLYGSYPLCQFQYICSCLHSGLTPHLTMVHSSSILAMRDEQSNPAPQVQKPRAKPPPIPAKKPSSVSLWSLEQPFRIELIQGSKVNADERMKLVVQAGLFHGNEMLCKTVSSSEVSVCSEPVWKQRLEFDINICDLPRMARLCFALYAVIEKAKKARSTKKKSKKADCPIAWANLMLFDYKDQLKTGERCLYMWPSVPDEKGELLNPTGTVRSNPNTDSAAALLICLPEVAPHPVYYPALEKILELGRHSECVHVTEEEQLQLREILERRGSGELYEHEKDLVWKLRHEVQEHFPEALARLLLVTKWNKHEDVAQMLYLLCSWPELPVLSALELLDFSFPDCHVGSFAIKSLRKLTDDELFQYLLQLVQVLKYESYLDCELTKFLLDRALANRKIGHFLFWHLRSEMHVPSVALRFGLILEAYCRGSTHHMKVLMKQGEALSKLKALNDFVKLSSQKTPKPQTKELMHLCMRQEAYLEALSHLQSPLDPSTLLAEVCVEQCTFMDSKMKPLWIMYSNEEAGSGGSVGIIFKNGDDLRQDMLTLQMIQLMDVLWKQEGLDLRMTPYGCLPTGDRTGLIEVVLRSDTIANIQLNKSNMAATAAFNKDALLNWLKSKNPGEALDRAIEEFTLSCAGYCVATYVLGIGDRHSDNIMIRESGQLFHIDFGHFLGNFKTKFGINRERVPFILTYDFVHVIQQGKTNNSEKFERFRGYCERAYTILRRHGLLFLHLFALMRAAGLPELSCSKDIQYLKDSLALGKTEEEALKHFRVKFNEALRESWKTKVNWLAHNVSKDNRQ

[2] = biological target: T2, Phosphatidylinositol 4,5-bisphosphate 3-kinase catalytic subunit gamma isoform (Homo sapiens, UniProt P48736); test: Inhibition of PI3Kgamma (unknown origin)
Target sequence in this assay (P48736 whole entry, canonical isoform): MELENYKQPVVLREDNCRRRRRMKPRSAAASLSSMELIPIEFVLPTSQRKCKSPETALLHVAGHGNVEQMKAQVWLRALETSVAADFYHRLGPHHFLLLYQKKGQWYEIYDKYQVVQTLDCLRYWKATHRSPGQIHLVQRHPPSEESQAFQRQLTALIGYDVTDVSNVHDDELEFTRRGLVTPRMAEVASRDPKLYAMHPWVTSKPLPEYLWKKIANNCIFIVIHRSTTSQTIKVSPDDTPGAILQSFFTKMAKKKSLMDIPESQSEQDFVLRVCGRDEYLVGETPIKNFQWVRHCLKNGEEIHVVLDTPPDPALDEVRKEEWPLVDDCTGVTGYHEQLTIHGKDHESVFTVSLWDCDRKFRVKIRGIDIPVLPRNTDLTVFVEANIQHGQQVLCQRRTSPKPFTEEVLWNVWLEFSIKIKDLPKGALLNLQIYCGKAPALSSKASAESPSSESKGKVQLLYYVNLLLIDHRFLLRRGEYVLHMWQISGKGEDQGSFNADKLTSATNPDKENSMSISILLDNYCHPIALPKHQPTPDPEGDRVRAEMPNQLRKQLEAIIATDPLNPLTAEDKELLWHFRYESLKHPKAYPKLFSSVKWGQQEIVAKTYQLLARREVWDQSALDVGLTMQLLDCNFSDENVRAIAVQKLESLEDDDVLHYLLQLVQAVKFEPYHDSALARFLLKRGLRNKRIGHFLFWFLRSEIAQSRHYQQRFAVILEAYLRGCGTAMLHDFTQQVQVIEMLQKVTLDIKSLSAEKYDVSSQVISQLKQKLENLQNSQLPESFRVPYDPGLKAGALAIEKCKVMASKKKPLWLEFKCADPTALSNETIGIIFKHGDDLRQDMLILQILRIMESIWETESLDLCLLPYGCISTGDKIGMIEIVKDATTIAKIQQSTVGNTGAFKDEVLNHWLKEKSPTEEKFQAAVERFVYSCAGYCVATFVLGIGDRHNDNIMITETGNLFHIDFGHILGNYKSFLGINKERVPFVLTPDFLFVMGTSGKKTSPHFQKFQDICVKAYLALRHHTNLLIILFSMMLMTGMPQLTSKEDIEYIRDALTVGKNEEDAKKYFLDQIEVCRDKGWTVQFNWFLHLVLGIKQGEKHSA

[3] = biological target: T3, Phosphatidylinositol 4,5-bisphosphate 3-kinase catalytic subunit alpha isoform (Homo sapiens, UniProt P42336); test: Inhibition of PI3Kalpha (unknown origin)
T3 sequence (P42336 whole entry, canonical isoform): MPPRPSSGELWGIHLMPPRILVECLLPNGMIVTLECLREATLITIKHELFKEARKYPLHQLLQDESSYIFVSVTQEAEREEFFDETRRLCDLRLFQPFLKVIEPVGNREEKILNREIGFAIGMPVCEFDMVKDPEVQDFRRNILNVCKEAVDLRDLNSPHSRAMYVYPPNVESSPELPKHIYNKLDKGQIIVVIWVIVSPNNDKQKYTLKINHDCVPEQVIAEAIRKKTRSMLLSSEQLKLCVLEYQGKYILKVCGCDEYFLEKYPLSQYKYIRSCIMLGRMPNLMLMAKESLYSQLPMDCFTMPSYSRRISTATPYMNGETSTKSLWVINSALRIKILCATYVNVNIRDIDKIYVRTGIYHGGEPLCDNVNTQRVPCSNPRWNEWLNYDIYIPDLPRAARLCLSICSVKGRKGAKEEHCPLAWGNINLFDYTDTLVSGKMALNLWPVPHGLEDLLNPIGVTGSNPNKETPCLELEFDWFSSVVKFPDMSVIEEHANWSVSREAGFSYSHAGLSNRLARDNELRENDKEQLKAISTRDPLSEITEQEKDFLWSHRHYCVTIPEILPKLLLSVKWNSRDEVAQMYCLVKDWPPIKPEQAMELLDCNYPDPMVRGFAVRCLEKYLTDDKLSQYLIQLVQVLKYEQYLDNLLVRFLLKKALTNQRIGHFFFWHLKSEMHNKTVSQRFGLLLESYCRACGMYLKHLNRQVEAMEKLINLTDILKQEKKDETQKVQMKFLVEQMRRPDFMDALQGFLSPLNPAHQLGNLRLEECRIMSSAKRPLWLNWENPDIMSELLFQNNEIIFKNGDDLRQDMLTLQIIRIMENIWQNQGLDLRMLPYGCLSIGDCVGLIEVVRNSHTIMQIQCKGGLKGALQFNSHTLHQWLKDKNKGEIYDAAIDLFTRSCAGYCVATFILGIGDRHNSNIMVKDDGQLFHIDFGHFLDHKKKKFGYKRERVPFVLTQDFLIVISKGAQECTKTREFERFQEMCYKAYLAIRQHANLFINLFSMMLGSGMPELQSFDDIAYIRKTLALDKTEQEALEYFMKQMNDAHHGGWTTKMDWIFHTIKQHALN

[4] = biological target: T4, Phosphatidylinositol 4,5-bisphosphate 3-kinase catalytic subunit beta isoform (Homo sapiens, UniProt P42338); test: Inhibition of PI3Kbeta (unknown origin)
Target sequence in this assay (P42338 whole entry, canonical isoform): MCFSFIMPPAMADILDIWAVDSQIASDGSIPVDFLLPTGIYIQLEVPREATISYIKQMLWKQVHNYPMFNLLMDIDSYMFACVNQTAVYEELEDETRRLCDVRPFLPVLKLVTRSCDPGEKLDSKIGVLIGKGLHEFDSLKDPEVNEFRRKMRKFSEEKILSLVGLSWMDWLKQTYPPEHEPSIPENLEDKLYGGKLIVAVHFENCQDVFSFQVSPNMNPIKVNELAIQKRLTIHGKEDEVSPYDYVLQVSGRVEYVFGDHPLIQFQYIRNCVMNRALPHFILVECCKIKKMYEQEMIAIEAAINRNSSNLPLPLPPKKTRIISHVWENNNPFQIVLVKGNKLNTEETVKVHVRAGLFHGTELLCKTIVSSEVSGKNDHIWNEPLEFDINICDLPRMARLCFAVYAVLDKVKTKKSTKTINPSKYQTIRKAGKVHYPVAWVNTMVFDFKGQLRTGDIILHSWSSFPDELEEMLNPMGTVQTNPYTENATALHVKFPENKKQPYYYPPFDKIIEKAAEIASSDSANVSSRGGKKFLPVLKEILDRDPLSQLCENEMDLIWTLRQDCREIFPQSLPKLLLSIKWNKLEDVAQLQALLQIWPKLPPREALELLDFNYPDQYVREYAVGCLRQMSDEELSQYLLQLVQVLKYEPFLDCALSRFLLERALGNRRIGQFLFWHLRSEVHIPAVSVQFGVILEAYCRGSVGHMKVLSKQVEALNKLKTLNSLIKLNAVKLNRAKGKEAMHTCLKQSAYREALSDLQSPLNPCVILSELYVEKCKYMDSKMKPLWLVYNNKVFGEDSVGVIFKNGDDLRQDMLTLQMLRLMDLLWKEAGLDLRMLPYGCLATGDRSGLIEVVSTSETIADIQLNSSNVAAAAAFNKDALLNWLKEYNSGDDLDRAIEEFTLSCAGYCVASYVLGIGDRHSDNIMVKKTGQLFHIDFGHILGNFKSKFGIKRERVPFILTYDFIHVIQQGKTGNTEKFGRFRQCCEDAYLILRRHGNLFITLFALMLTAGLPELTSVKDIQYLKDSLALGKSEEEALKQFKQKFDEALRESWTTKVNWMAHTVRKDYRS

[5] = human, microsomes, 10 µM
in vitro = details: human, liver microsomes
[6] = biological target: T5, Phosphatidylinositol 4,5-bisphosphate 3-kinase catalytic subunit delta isoform (Homo sapiens) (UniProt O00329); test: Inhibition of PI3Kdelta (unknown origin) at 0.1 uM using phosphatidylinositol as substrate incubated for 30 mins in presence of ATP by HTRF based assay relative to control
T5 sequence (whole entry): T1 sequence (O00329 whole entry)

[7] = biological target: T5, Phosphatidylinositol 4,5-bisphosphate 3-kinase catalytic subunit delta isoform (Homo sapiens); test: Inhibition of PI3Kdelta (unknown origin) at 0.01 uM using phosphatidylinositol as substrate incubated for 30 mins in presence of ATP by HTRF based assay relative to control
[8] = biological target: T3, Phosphatidylinositol 4,5-bisphosphate 3-kinase catalytic subunit alpha isoform; test: Inhibition of PI3Kalpha (unknown origin) at 0.1 uM relative to control
[9] = biological target: T2, Phosphatidylinositol 4,5-bisphosphate 3-kinase catalytic subunit gamma isoform; test: Inhibition of PI3Kgamma (unknown origin) at 0.1 uM relative to control
Target sequence in this assay (P48736 whole entry, looked up, canonical isoform): as the sequence (P48736 whole entry, canonical isoform) above

[10] = biological target: T4, Phosphatidylinositol 4,5-bisphosphate 3-kinase catalytic subunit beta isoform; test: Inhibition of PI3Kbeta (unknown origin) at 0.1 uM relative to control
Target sequence in this assay (P42338 whole entry, looked up, canonical isoform): as the sequence (P42338 whole entry, canonical isoform) above

For `N#Cc1c(N)ncnc1N1[C@H](c2nc3cccc(Cl)c3c(=O)n2-c2cc(F)cc(F)c2)C[C@@H]2CCCC[C@@H]21`, the IC50 [1] was 0.142 µM, the IC50 [2] was greater than 1 µM and the IC50 [3] was greater than 1 µM. For the same compound, the IC50 [4] was greater than 1 µM, the CLH [5] was less than 12 mL/min/g and the half-life at 60 h, 10 µM (in vitro) was greater than 2 h.

`C=C1C[C@@H](c2nc3cccc(Cl)c3c(=O)n2-c2ccccc2)N(c2nc(N)nc3[nH]cnc23)C1` showed an inhibition [6] of 96% and an inhibition [7] of 52%.

Compound `Nc1nc(N2[C@H](c3nc4cccc(Cl)c4c(=O)n3-c3ccccc3)C[C@@H]3CCCC[C@@H]32)c2nc[nH]c2n1` has an inhibition [6] of 6% and an inhibition [7] of 2%.

Compound `C=CCO[C@@H]1C[C@@H](c2nc3cccc(Cl)c3c(=O)n2-c2ccccc2)N(c2ncnc(N)c2C#N)C1` has an inhibition [6] of 47%, an inhibition [7] of 17% and an IC50 [1] of 0.067 µM. For the same compound, the CLH [5] was 767 mL/min/g and the half-life at 60 h, 10 µM (in vitro) was 0.03 h.

With `O=c1c2c(Cl)cccc2nc([C@@H]2CC(F)(F)CN2c2ncnc3[nH]ccc23)n1-c1ccccc1` the inhibition [6] was 26% and the inhibition [7] was 4%.

For `C=CCO[C@@H]1C[C@@H](c2nc3cccc(Cl)c3c(=O)n2-c2ccccc2)N(c2nc(N)nc3[nH]cnc23)C1`, the inhibition [6] was 42% and the inhibition [7] was 7%.

For `O=c1c2c(Cl)cccc2nc([C@@H]2CC3(CC3)CN2c2ncnc3[nH]ccc23)n1-c1ccccc1`, the inhibition [6] was 8% and the inhibition [7] was 2%.

Compound `O=c1c2c(Cl)cccc2nc([C@@H]2C[C@@H]3CCCC[C@@H]3N2c2ncnc3[nH]ccc23)n1-c1ccccc1` has an inhibition [6] of 3% and an inhibition [7] of 1%.

With `O=c1c2c(Cl)cccc2nc([C@@H]2C[C@@H]3CCCC[C@@H]3N2c2nc(Cl)nc3[nH]cnc23)n1-c1ccccc1` the inhibition [6] was 1% and the inhibition [7] was -1%.

Compound `Nc1nc(N2CC3(CC3)C[C@H]2c2nc3cccc(Cl)c3c(=O)n2-c2ccccc2)c2nc[nH]c2n1` has an inhibition [6] of 44% and an inhibition [7] of 8%.

With `Cc1ccnc(N2[C@H](c3nc4cccc(Cl)c4c(=O)n3-c3ccccc3)C[C@@H]3CCCC[C@@H]32)n1` the inhibition [6] was -1% and the inhibition [7] was -1%.

Compound `N#Cc1c(N)ncnc1N1[C@H](c2nc3cccc(F)c3c(=O)n2-c2cc(F)cc(F)c2)C[C@@H]2CCCC[C@@H]21` has an IC50 [1] of 0.305 µM, an IC50 [2] greater than 1 µM and an IC50 [3] greater than 1 µM. The IC50 [4] was greater than 1 µM, the CLH [5] was 2.4 mL/min/g and the half-life at 60 h, 10 µM (in vitro) was 9.62 h.

`N#Cc1c(N)ncnc1N1[C@H](c2nc3cccc(Cl)c3c(=O)n2N2CCOCC2)C[C@@H]2CCCC[C@@H]21` gave an inhibition [8] of 24%, an inhibition [9] of 5% and an inhibition [10] of 43%. For the same compound, the IC50 [1] was 0.014 µM, the CLH [5] was 11 mL/min/g and the half-life at 60 h, 10 µM (in vitro) was 2.1 h.

Compound `C[C@H]1CC[C@@H](c2nc3cccc(Cl)c3c(=O)n2-c2cccc(F)c2)N1c1nc(N)nc2[nH]cnc12` has an inhibition [8] of 42%, an inhibition [10] of 43% and an IC50 [1] of 0.009 µM. It also gave an IC50 [2] of 0.009 µM.

Compound `C[C@H]1CC[C@@H](c2nc3cccc(Cl)c3c(=O)n2N2CCOCC2)N1c1ncnc(N)c1C#N` has an inhibition [8] of 5%, an inhibition [10] of 45% and an IC50 [1] of 0.01 µM. For the same compound, the IC50 [2] was 0.295 µM, the CLH [5] was 12.6 mL/min/g and the half-life at 60 h, 10 µM (in vitro) was 1.83 h.

In the case of `N#Cc1cccnc1N1[C@H](c2nc3cccc(Cl)c3c(=O)n2-c2ccccc2)C[C@@H]2CCCC[C@@H]21`, the inhibition [6] is reported as 0% and the inhibition [7] is reported as -1%.

Work on `C=C1C[C@@H](c2nc3cccc(Cl)c3c(=O)n2-c2ccccc2)N(c2ncnc(N)c2C#N)C1` yielded an inhibition [6] of 102%, an inhibition [7] of 79% and an IC50 [1] of 0.003 µM. For the same compound, the IC50 [2] was 0.25 µM, the IC50 [3] was greater than 1 µM and the IC50 [4] was 0.819 µM. For the same compound, the CLH [5] was 103.8 mL/min/g and the half-life at 60 h, 10 µM (in vitro) was 0.223 h.

With `Nc1nc(N2CC(F)(F)C[C@H]2c2nc3cccc(Cl)c3c(=O)n2-c2ccccc2)c2nc[nH]c2n1` the inhibition [6] was 50% and the inhibition [7] was 11%.

Work on `C[C@H]1CC[C@@H](c2nc3cccc(Cl)c3c(=O)n2-c2ccccc2)N1c1nc(N)nc2[nH]cnc12` yielded an inhibition [8] of 22%, an inhibition [10] of 69% and an IC50 [1] of 0.025 µM. It also gave an IC50 [2] of 0.038 µM, a CLH [5] of 3.8 mL/min/g and a half-life at 60 h, 10 µM (in vitro) of 6.08 h.

For `O=c1c2c(Cl)cccc2nc([C@@H]2C[C@@H]3CCCC[C@@H]3N2c2ncnc3[nH]ncc23)n1-c1ccccc1`, the inhibition [6] was -3% and the inhibition [7] was -3%.

`N#Cc1c(N)ncnc1N1[C@H](c2nc3cccc(Cl)c3c(=O)n2-c2cccnc2)C[C@@H]2CCCC[C@@H]21` gave an inhibition [8] of 17%, an inhibition [9] of 3% and an inhibition [10] of 17%. For the same compound, the IC50 [1] was 0.05 µM, the CLH [5] was 5.4 mL/min/g and the half-life at 60 h, 10 µM (in vitro) was 4.28 h.

For `O=c1c2c(Cl)cccc2nc([C@@H]2C[C@@H]3CCCC[C@@H]3N2c2ncnc3[nH]cnc23)n1-c1ccccc1`, the inhibition [6] was 8% and the inhibition [7] was 0%.

Compound `C=C1C[C@@H](c2nc3cccc(Cl)c3c(=O)n2-c2ccccc2)N(c2ncnc3[nH]ccc23)C1` has an inhibition [6] of 59% and an inhibition [7] of 12%.

In the case of `C[C@H]1CC[C@@H](c2nc3cccc(Cl)c3c(=O)n2-c2ccccc2)N1c1ncnc(N)c1C#N`, the IC50 [1] is reported as 0.005 µM, the IC50 [2] is reported as 0.144 µM and the IC50 [3] is reported as greater than 1 µM. The IC50 [4] was 0.968 µM, the CLH [5] was 22.6 mL/min/g and the half-life at 60 h, 10 µM (in vitro) was 1.02 h.

`Nc1ccnc(N2[C@H](c3nc4cccc(Cl)c4c(=O)n3-c3ccccc3)C[C@@H]3CCCC[C@@H]32)n1` showed an inhibition [6] of -3% and an inhibition [7] of -1%.

`O=c1c2c(Cl)cccc2nc([C@@H]2CC(F)(F)CN2c2ncnc3[nH]cnc23)n1-c1ccccc1` showed an inhibition [6] of 34% and an inhibition [7] of 4%.

In the case of `C[C@H]1CC[C@@H](c2nc3cccc(Cl)c3c(=O)n2-c2cccnc2)N1c1ncnc(N)c1C#N`, the inhibition [8] is reported as 18%, the inhibition [10] is reported as 45% and the IC50 [1] is reported as 0.004 µM. For the same compound, the IC50 [2] was 0.351 µM, the CLH [5] was 13.4 mL/min/g and the half-life at 60 h, 10 µM (in vitro) was 1.72 h.

With `C=C1C[C@@H](c2nc3cccc(Cl)c3c(=O)n2-c2ccccc2)N(c2ncnc3[nH]cnc23)C1` the inhibition [6] was 75% and the inhibition [7] was 28%.

With `O=c1c2c(Cl)cccc2nc([C@@H]2CC3(CC3)CN2c2ncnc3[nH]cnc23)n1-c1ccccc1` the inhibition [6] was 32% and the inhibition [7] was 3%.

`C=CCO[C@@H]1C[C@@H](c2nc3cccc(Cl)c3c(=O)n2-c2ccccc2)N(c2ncnc3[nH]cnc23)C1` gave an inhibition [6] of 8% and an inhibition [7] of 1%.

In the case of `O=c1c2c(Cl)cccc2nc([C@@H]2C[C@@H]3CCCC[C@@H]3N2c2nccc(Cl)n2)n1-c1ccccc1`, the inhibition [6] is reported as -2% and the inhibition [7] is reported as -2%.

In the case of `N#Cc1c(N)ncnc1N1CC2(CC2)C[C@H]1c1nc2cccc(Cl)c2c(=O)n1-c1ccccc1`, the inhibition [6] is reported as 83%, the inhibition [7] is reported as 23% and the IC50 [1] is reported as 0.02 µM. It also gave an IC50 [2] of 0.655 µM, an IC50 [3] greater than 1 µM and an IC50 [4] greater than 1 µM. It also gave a CLH [5] of 27.6 mL/min/g and a half-life at 60 h, 10 µM (in vitro) of 0.837 h.

Work on `Nc1nc(N2CCC[C@H]2c2nc3cccc(Cl)c3c(=O)n2-c2ccccc2)c2nc[nH]c2n1` yielded a CLH [5] of 21.8 mL/min/g and a half-life at 60 h, 10 µM (in vitro) of 1.06 h.

For `C[C@H]1CC[C@@H](c2nc3cccc(Cl)c3c(=O)n2-c2cccc(F)c2)N1c1ncnc2[nH]ccc12`, the inhibition [8] was 19%, the IC50 [1] was 0.03 µM and the IC50 [2] was 0.074 µM.

For `C=CCO[C@@H]1C[C@@H](c2nc3cccc(Cl)c3c(=O)n2-c2ccccc2)N(c2ncnc3[nH]ccc23)C1`, the inhibition [6] was 7% and the inhibition [7] was 2%.

Work on `C[C@H]1CC[C@@H](c2nc3cccc(Cl)c3c(=O)n2-c2cccc(F)c2)N1c1ncnc(N)c1C#N` yielded an IC50 [1] of 0.003 µM, an IC50 [2] of 0.199 µM and an IC50 [3] greater than 1 µM. The IC50 [4] was greater than 1 µM, the CLH [5] was 10.4 mL/min/g and the half-life at 60 h, 10 µM (in vitro) was 2.22 h.
